Data: patent US20230042917A1, “DIRECT REPROGRAMMING OF SOMATIC CELLS INTO MYOGENIC CELLS” (THE GENERAL HOSPITAL CORPORATION, priority 2016, published 2023)

Test system: MEFs expressing MyoD
Assay: Reprogramming of MyoD-expressing MEFs with small molecules (myotubes, proliferative cells, contraction, Pax7 staining)
Type: cell-based, mouse
Settings: for formation of MyHC+, polynucleated myotubes / generation of proliferative cells: Knockout DMEM, 10% KOSR, 10% FBS, 10 ng/ml bFGF
Excerpt: A doxycycline (dox) inducible lentiviral system (tetOP-MyoD) was engineered, allowing for inducible and reversible activation of MyoD in target cells. […] The myogenic identity of converted cells was confirmed by immunofluorescence staining for the differentiation marker myosin heavy chain (MyHC), which was absent in uninfected MEFs (FIG. 14C).
MEFs undergoing MyoD-induced lineage conversion were exposed to various small molecules and cytokines in an attempt to induce reprogramming into a proliferative, myogenic progenitor-like cell state in addition to mature myotubes (FIG. 14A, bottom row). Specifically, compounds including the GSK3β inhibitor CHIR99021 (abbreviated as “G”) and the TGF-01 receptor inhibitor RepSox (abbreviated as “R”) were used. In addition, the effect of the cyclic AMP agonist Forskolin (abbreviated as “F”), which reportedly facilitates the transient expansion of satellite cells in vitro was tested. These compounds were added individually or combinatorially to MEFs expressing MyoD and cultured in Knockout DMEM media containing 10% KOSR and 10% FBS and supplemented with 10 ng/ml bFGF, which promotes satellite cell and myoblast growth. […] Cultures treated with these small molecules typically assembled into three-dimensional colonies with emanating myotubes and numerous small, round cells that seem to be muscle progenitors (FIG. 14B and live video monitoring was used to monitor the muscle progenitors). KOSR media contains ascorbic acid, which enhances reprogramming into iPSCs by modulating epigenetic regulators. To determine whether ascorbic acid is required for the induction of these proliferative, putative progenitor cells using our culture system, MEFs expressing MyoD were exposed to F/R in the presence or absence of ascorbic acid using DMEM media containing FBS and bFGF but lacking KOSR.
To assess the temporal requirement for exogenous MyoD expression and small molecules during the establishment and maintenance of our progenitor-like cell population, infected MEFs were treated with dox for 0, 2, 4, 6, 8 or 10 days in the presence of F/R, followed by 5 days of dox withdrawal before scoring for colonies that proliferated and contracted (FIG. 14G). […] By contrast, continuous exposure of cultures to F/R was required to maintain these cultures upon passaging (FIG. 14G and data not shown). Thus, without being bound by any particular theory, small molecules and growth factors collaborate with transient MyoD expression to endow MEFs with a myogenic progenitor-like state. These cells are provisionally termed “induced myogenic progenitor cells” (iMPCs).
Mouse embryonic fibroblasts (MEFs), Tail-tip fibroblasts (TTFs) and the commercial myoblast cell line C2C12 (ATCC®CRL-1772™) were cultured in “MEF medium” containing DMEM (ThermoFisher Scientific, catalog number 10313-021), supplemented with 10% Fetal Bovine Serum (FBS) (HyClone catalog number SH30396.03), 1% GlutaMAX (ThermoFisher Scientific, catalog number 35050061), 1% non-essential amino acids (ThermoFisher Scientific, catalog number 11140050), 1% penicillin-streptomycin (ThermoFisher Scientific, catalog number 15140122), 0.5% β-mercaptoethanol (ThermoFisher Scientific, catalog number 21985-023). Freshly isolated satellite cells and derivative myoblasts were cultured using a 1:1 ratio of DMEM and F-10 (1×) Nutrient mix (ThermoFisher Scientific, catalog number 11550-043) supplemented with 10% horse serum (ThermoFisher Scientific, catalog number 16050-122), 20% FBS (HyClone catalog number SH30396.03) and […] basic-FGF (R&D 233-FB). Satellite cells and myoblasts were cultured on plates coated with Matrigel Basement Membrane Matrix (Catalog number 356237, Corning). […]

SMILES | Pax7+ cells (immunofluorescence) (MEFs expressing MyoD, in the presence of KOSR or ascorbate) | formation of MyHC+, polynucleated myotubes (MEFs expressing MyoD) | generation of proliferative cells (MEFs expressing MyoD) | generation of proliferative cells and contracting myotubes (MEFs expressing MyoD exposed to F/R, DMEM with FBS and bFGF lacking KOSR) | Pax7+ iMPC formation after withdrawal of SR (MyoD + FR, medium without serum replacement)
Cc1c[nH]c(-c2cnc(NCCNc3ccc(C#N)cn3)nc2-c2ccc(Cl)cc2Cl)n1 [G, CHIR99021] | only in the presence of FR | increased | did not generate any proliferative cells |  | 
Cc1cccc(-c2n[nH]cc2-c2ccc3ncccc3n2)n1 [R, 2-3[(6-methyl-2-pyridinyl)-1H-pyrazol-4-yl]-1,5-napthyridine] |  | increased | did not generate any proliferative cells |  | 
O=C1O[C@H]([C@@H](O)CO)C(O)=C1O [ascorbic acid] |  |  |  | depended on ascorbic acid | partially rescues this phenotype
